Measurements as given in patent US20090181467A1, “Method of assessing and of activating the alternative cellular energy (ACE) pathway in the therapy of diseases” (MI Hope Inc. dba Progressive University, priority 2008, published 2009).

Legend:
[1] = tested on: active skin lesions caused by herpes simplex virus (HSV), herpes zoster virus (HZV) and human papillomavirus (HPV) infections; details: cited from earlier work
[2] = tested on: alternative cellular energy (ACE) pathway; experiment: neutral red dye / UV-A light activation of the ACE pathway in patients; format: in vivo, human
Excerpt: A series of patients have been seen who have a history of recurrent herpes simplex virus (HSV) skin lesions, or a past history of herpes zoster virus (HZV) infections, but with no actual skin lesions present at the time of examination. Another series of patients were recruited from among the patients attending a chiropractic clinic for various pain or impaired mobility related conditions. Under the direction of the inventor, both groups of patients were asked to volunteer for a study on assessing and, if necessary, activating the ACE pathway. Q-tips were used to sample various areas of their skin as well as the mucosal (buccal) surface of their mouths. Urine samples were also collected. The materials were checked for direct fluorescence using a 15W ultraviolet-A light emitting spiral fluorescent light (Halco, ProLume light). The swabs were then touched against other Q-tips that were soaked in an approximately 1 mg/ml solution of neutral red. Several drops of the neutral red solution were added to the urine. The Q-tips and urine were again examined under UV-A light for discernable fluorescence compared to Q-tips exposed only to neutral red. […] Clinic staff similarly tested and gave negative results.
Skin areas of the patients from which fluorescing material were obtained were then wiped with absorbent cloth. These cloth was placed over areas of skin from which the material was collected, stained with neutral red, and exposed to UV-A light from spiral fluorescent bulbs. Under UV illumination, fluorescence developed in areas of skin beneath and adjacent to the stained cloth. The fluorescence lasted for varying periods of time extending in one patient to 3 hours, but generally less than 1 hour. […] Similarly, in most patients there was no discernable fluorescing material when the patients were seen the next day. […] A person commented upon the relief they experienced from a chronically painful shoulder that had resulted from injuries received years earlier in a car accident. Another patient's personality transformed from expressions of anger and hostility to one of laughter and smiles.

Which “healing of active skin lesions” value [1] does the source give for Cc1cc2nc3ccc(N(C)C)cc3nc2cc1N.Cl [neutral red] here?
Its value is “successfully used in expediting the healing”.

And the sense of wellness ([2]; all patients, at the end of period of UV illumination)?
Its sense of wellness is “much improved sense of wellness”.

And the “severity of the pain and restricted mobility symptoms” value ([2]; chiropractic patients, following day)?
The value was “marked reductions”.

What about the “persistence of benefits after a therapy session” value ([2]; no additional intervention) of the same compound?
The value was 2-3 weeks.

And the vitality ([2]; patients with prior history of recurrent HSV infections, immediately after therapy session and next day)?
Its vitality is “improved vitality”.
